Consider two molecules from patent US9403820B2, “Kinase inhibitor polymorphs” (INTELLIKINE LLC, priority 2011, dated 2016).

Structures can show the parent of a compound that is named as a salt.

Common to all, as to assay type: physicochemical
A short description of data set [1]: VH-XRPD (variable humidity XRPD) form stability. The text has this: Variable humidity XRPD analysis was undertaken in order to determine if two hydrated species were present. […] On increasing the humidity, the material started to re-hydrate from 13% RH, and reverted completely back to HCl Pattern 2 by 45% RH. […] Only one XRPD pattern was observed upon dehydration and it is not possible to conclude whether this is a totally anhydrous or partially hydrated form.

Data set [2] is described as follows: GVS (gravimetric vapor sorption) moisture sorption isotherm. As to the method:
Sorption isotherms were obtained using a SMS DVS Intrinsic moisture sorption analyser, controlled by DVS Intrinsic Control software v1.0.0.30. The sample temperature was maintained at 25° C. by the instrument controls. The humidity was controlled by mixing streams of dry and wet nitrogen, with a total flow rate of 200 mL.min−1 The relative humidity was measured by a calibrated Rotronic probe (dynamic range of 1.0-100% RH), located near the sample. The weight change (mass relaxation) of the sample as a function of % RH was constantly monitored by the microbalance (accuracy±0.005 mg). Approximately 5-20 mg of sample was placed in a tared mesh stainless steel basket under ambient conditions. The sample was loaded and unloaded at 40% RH and 25° C. (typical room conditions). A moisture sorption isotherm was performed as outlined below (2 scans giving 1 complete cycle). The standard isotherm was performed at 25° C. at 10% RH intervals over a 0-90% RH range. Data analysis was undertaken in Microsoft Excel using DVS Analysis Suite v6.0.0.7.

A short description of data set [3]: Stability at 40° C./75% RH (XRPD after storage). The settings on record: 3 weeks storage, by XRPD.
The nature of data set [4]: Solid form stability on vacuum drying (XRPD). As to the method: HCl Pattern 1: Formula I free base (ca. 500 mg) was suspended in nitromethane (50 volumes, 25 mL) with stirring. HCl (1M in THF; 1.2 equivalents; 1.65 mL) was added. The suspension was subjected to heating/cooling cycles between RT and 50° C., 4 hours at each condition for one week. […] The solid was isolated by vacuum filtration and dried under vacuum at RT for 16 hours.

Regarding `Nc1nc2cc(-c3ccc4ncc(C(=O)N5CCOCC5)n4c3)ccc2o1` [HCl Pattern 2], the “VH-XRPD: RH below which the material starts to change” value in data set [1] (full conversion to HCl Pattern 3 at 0.5% RH) is “The material starts to change below 25% RH, with full conversion to HCl”. For the same molecule, the “VH-XRPD: RH to which the form is stable” value in data set [1] (then starts to change to HCl Pattern 3) is on record as ≥ 14 % RH. In data set [2] (between 40-90% RH, 25° C.), the GVS reversible uptake result is “Reversible uptake of ca. 6 wt % between 40-90% RH”. For the same molecule, the “GVS: RH to which the form appeared stable” value in data set [2] (dehydration observed below, rehydration by 40%) was ≥ 30 % RH. In data set [2] (end of GVS experiment), the “GVS water content at the end of the experiment” value is reported as 10.6 wt % and the “GVS water content at the end of the experiment, equivalents” value worked out at 3.0 eqs. The “Stability at 40° C./75% RH” value in data set [3] is listed as “No significant changes observed by XRPD after 3 weeks storage”.

In the case of `Nc1nc2cc(-c3ccc4ncc(C(=O)N5CCOCC5)n4c3)ccc2o1` [HCl Pattern 1], in data set [4], the “Form stability on drying under vacuum at RT for 16 hours (XRPD)” value is listed as “partially reverted to the free base”.
